According to PubChem BioAssay AID1919004 (Molecular Pharmacology Branch, DTP, NCI, 2023):
pIC50: −log10 of the molar value. Each block holds one compound with its values, some of them ahead of it.

Tested on: 883617-216-R-J1-PDC complex spheroids, growth, % test/control
Assay: Anticancer human tumor 883617-216-R-J1-PDC patient-derived bladder carcinoma cell line growth inhibition [AhR]
Settings: for pIC50: curve of first compound; for viability, T/C: stronger effect = lower value
Method in brief: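 Agents were dosed in half-log steps down from roughly clinical Cmax, or from 10 microM where Cmax was unknown, alone and with AhR antagonists. Read-out: percent test/control growth of tumor spheroids containing HUVEC and MSC stromal cells.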

[1] = second compound 0.1 µM, first compound 0.0316 µM
[2] = second compound 0.1 µM, first compound 0.1 µM
[3] = second compound 0.1 µM, first compound 0.316 µM
[4] = second compound 0.1 µM, first compound 1 µM
[5] = second compound 0.1 µM, first compound 3.16 µM
[6] = second compound 0.1 µM, first compound 10 µM
[7] = second compound 0.316 µM, first compound 0.0316 µM
[8] = second compound 0.316 µM, first compound 0.1 µM
[9] = second compound 0.316 µM, first compound 0.316 µM
[10] = second compound 0.316 µM, first compound 1 µM
[11] = second compound 0.316 µM, first compound 3.16 µM
[12] = second compound 0.316 µM, first compound 10 µM
[13] = second compound 1 µM, first compound 0.0316 µM
[14] = second compound 1 µM, first compound 0.1 µM
[15] = second compound 1 µM, first compound 0.316 µM
[16] = second compound 1 µM, first compound 1 µM
[17] = second compound 1 µM, first compound 3.16 µM
[18] = second compound 1 µM, first compound 10 µM
[19] = second compound 3.16 µM, first compound 0.0316 µM
[20] = second compound 3.16 µM, first compound 0.1 µM
[21] = second compound 3.16 µM, first compound 0.316 µM
[22] = second compound 3.16 µM, first compound 1 µM
[23] = second compound 3.16 µM, first compound 3.16 µM
[24] = second compound 3.16 µM, first compound 10 µM
[25] = second compound 10 µM, first compound 0.0316 µM
[26] = second compound 10 µM, first compound 0.1 µM
[27] = second compound 10 µM, first compound 0.316 µM
[28] = second compound 10 µM, first compound 1 µM
[29] = second compound 10 µM, first compound 3.16 µM
[30] = second compound 10 µM, first compound 10 µM
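Also: exposure lasted 7 days after dosing on day 3 of spheroid growth.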

pIC50 (second compound 0.1 µM): < 5.00
pIC50 (second compound 0.316 µM): < 5.00
pIC50 (second compound 1 µM): < 5.00
pIC50 (second compound 3.16 µM): < 5.00
pIC50 (second compound 10 µM): < 5.00
SMILES: O=C(c1cc(Cc2n[nH]c(=O)c3ccccc23)ccc1F)N1CCN(C(=O)C2CC2)CC1 + Cc1cncc(-c2nc(NCCc3c[nH]c4ccccc34)c3ncn(C(C)C)c3n2)c1
viability, T/C [1]: 81.1%
viability, T/C [2]: 89.9%
viability, T/C [3]: 76.4%
viability, T/C [4]: 79.5%
viability, T/C [5]: 70.8%
viability, T/C [6]: 83.7%
viability, T/C [7]: 93.5%
viability, T/C [8]: 86.9%
viability, T/C [9]: 79.1%
viability, T/C [10]: 78.9%
viability, T/C [11]: 77.9%
viability, T/C [12]: 71.7%
viability, T/C [13]: 90%
viability, T/C [14]: 90.9%
viability, T/C [15]: 91%
viability, T/C [16]: 78.9%
viability, T/C [17]: 87%
viability, T/C [18]: 80%
viability, T/C [19]: 99.9%
viability, T/C [20]: 94.8%
viability, T/C [21]: 98.4%
viability, T/C [22]: 89.6%
viability, T/C [23]: 101%
viability, T/C [24]: 71.9%
viability, T/C [25]: 53.8%
viability, T/C [26]: 54.9%
viability, T/C [27]: 50.4%
viability, T/C [28]: 49.6%
viability, T/C [29]: 49.3%
viability, T/C [30]: 54.4%

pIC50 (second compound 0.1 µM): < 6.52
pIC50 (second compound 0.316 µM): < 6.52
pIC50 (second compound 1 µM): < 6.52
pIC50 (second compound 3.16 µM): < 6.52
pIC50 (second compound 10 µM): < 6.52
SMILES: Nc1ncn(C2CC(O)C(CO)S2)c(=O)n1 (stereo not given) + Cc1ccccc1N=Nc1ccc(NC(=O)c2ccnn2C)c(C)c1
viability, T/C (second compound 0.1 µM, first compound 0.000949 µM): 98.4%
viability, T/C (second compound 0.1 µM, first compound 0.003 µM): 90.2%
viability, T/C (second compound 0.1 µM, first compound 0.00949 µM): 88.8%
viability, T/C (second compound 0.1 µM, first compound 0.03 µM): 88.7%
viability, T/C (second compound 0.1 µM, first compound 0.0949 µM): 87.3%
viability, T/C (second compound 0.1 µM, first compound 0.3 µM): 75.8%
viability, T/C (second compound 0.316 µM, first compound 0.000949 µM): 83.9%
viability, T/C (second compound 0.316 µM, first compound 0.003 µM): 93.8%
viability, T/C (second compound 0.316 µM, first compound 0.00949 µM): 83.5%
viability, T/C (second compound 0.316 µM, first compound 0.03 µM): 81.2%
viability, T/C (second compound 0.316 µM, first compound 0.0949 µM): 84.6%
viability, T/C (second compound 0.316 µM, first compound 0.3 µM): 75.5%
viability, T/C (second compound 1 µM, first compound 0.000949 µM): 84.3%
viability, T/C (second compound 1 µM, first compound 0.003 µM): 84.2%
viability, T/C (second compound 1 µM, first compound 0.00949 µM): 99.2%
viability, T/C (second compound 1 µM, first compound 0.03 µM): 80.3%
viability, T/C (second compound 1 µM, first compound 0.0949 µM): 76.1%
viability, T/C (second compound 1 µM, first compound 0.3 µM): 80.7%
viability, T/C (second compound 3.16 µM, first compound 0.000949 µM): 81.7%
viability, T/C (second compound 3.16 µM, first compound 0.003 µM): 87.9%
viability, T/C (second compound 3.16 µM, first compound 0.00949 µM): 85%
viability, T/C (second compound 3.16 µM, first compound 0.03 µM): 73.3%
viability, T/C (second compound 3.16 µM, first compound 0.0949 µM): 86.4%
viability, T/C (second compound 3.16 µM, first compound 0.3 µM): 78.7%
viability, T/C (second compound 10 µM, first compound 0.000949 µM): 73.8%
viability, T/C (second compound 10 µM, first compound 0.003 µM): 68.5%
viability, T/C (second compound 10 µM, first compound 0.00949 µM): 76.3%
viability, T/C (second compound 10 µM, first compound 0.03 µM): 79.2%
viability, T/C (second compound 10 µM, first compound 0.0949 µM): 76.9%
viability, T/C (second compound 10 µM, first compound 0.3 µM): 83.4%

pIC50 (second compound 0.1 µM): < 5.00
pIC50 (second compound 0.316 µM): < 5.00
pIC50 (second compound 1 µM): < 5.00
pIC50 (second compound 3.16 µM): < 5.00
pIC50 (second compound 10 µM): < 5.00
SMILES: COc1cc(Nc2ncc3c(n2)-c2ccc(Cl)cc2C(c2c(F)cccc2OC)=NC3)ccc1C(=O)O + Cc1ccccc1N=Nc1ccc(NC(=O)c2ccnn2C)c(C)c1
viability, T/C [1]: 83.3%
viability, T/C [2]: 78.7%
viability, T/C [3]: 74.5%
viability, T/C [4]: 63.2%
viability, T/C [5]: 71.1%
viability, T/C [6]: 63.6%
viability, T/C [7]: 72.7%
viability, T/C [8]: 83.1%
viability, T/C [9]: 64.6%
viability, T/C [10]: 62.6%
viability, T/C [11]: 66.3%
viability, T/C [12]: 63.2%
viability, T/C [13]: 73.9%
viability, T/C [14]: 73.7%
viability, T/C [15]: 67.2%
viability, T/C [16]: 72%
viability, T/C [17]: 63.7%
viability, T/C [18]: 53.7%
viability, T/C [19]: 67.4%
viability, T/C [20]: 76.3%
viability, T/C [21]: 69.6%
viability, T/C [22]: 62.1%
viability, T/C [23]: 67%
viability, T/C [24]: 56.4%
viability, T/C [25]: 68.9%
viability, T/C [26]: 67.7%
viability, T/C [27]: 67.8%
viability, T/C [28]: 61.3%
viability, T/C [29]: 58.7%
viability, T/C [30]: 50.8%

The next lines start with the compound.

SMILES: Nc1ccccc1NC(=O)c1ccc(CNC(=O)OCc2cccnc2)cc1 + Cc1cncc(-c2nc(NCCc3c[nH]c4ccccc34)c3ncn(C(C)C)c3n2)c1
pIC50 (second compound 0.1 µM): 6.22
pIC50 (second compound 0.316 µM): 6.18
pIC50 (second compound 1 µM): 6.08
pIC50 (second compound 3.16 µM): 5.98
pIC50 (second compound 10 µM): > 7.50
viability, T/C [1]: 81.2%
viability, T/C [2]: 78.8%
viability, T/C [3]: 66.7%
viability, T/C [4]: 37%
viability, T/C [5]: 11.3%
viability, T/C [6]: 1.5%
viability, T/C [7]: 88.1%
viability, T/C [8]: 79.7%
viability, T/C [9]: 68.5%
viability, T/C [10]: 40.1%
viability, T/C [11]: 14.4%
viability, T/C [12]: 0.94%
viability, T/C [13]: 96.6%
viability, T/C [14]: 93.7%
viability, T/C [15]: 77.8%
viability, T/C [16]: 44.6%
viability, T/C [17]: 14.1%
viability, T/C [18]: 0.83%
viability, T/C [19]: 109%
viability, T/C [20]: 105%
viability, T/C [21]: 83.2%
viability, T/C [22]: 51.1%
viability, T/C [23]: 18.9%
viability, T/C [24]: 0.37%
viability, T/C [25]: 41.6%
viability, T/C [26]: 42.5%
viability, T/C [27]: 35.8%
viability, T/C [28]: 21.3%
viability, T/C [29]: 11.1%
viability, T/C [30]: 0.35%

SMILES: O=C(c1cc(Cc2n[nH]c(=O)c3ccccc23)ccc1F)N1CCN(C(=O)C2CC2)CC1 + Cc1ccccc1N=Nc1ccc(NC(=O)c2ccnn2C)c(C)c1
pIC50 (second compound 0.1 µM): < 5.00
pIC50 (second compound 0.316 µM): < 5.00
pIC50 (second compound 1 µM): < 5.00
pIC50 (second compound 3.16 µM): < 5.00
pIC50 (second compound 10 µM): < 5.00
viability, T/C [1]: 88.7%
viability, T/C [2]: 90.9%
viability, T/C [3]: 98.7%
viability, T/C [4]: 84.3%
viability, T/C [5]: 84.1%
viability, T/C [6]: 81%
viability, T/C [7]: 84.7%
viability, T/C [8]: 82.1%
viability, T/C [9]: 76.5%
viability, T/C [10]: 86.5%
viability, T/C [11]: 74.8%
viability, T/C [12]: 85.4%
viability, T/C [13]: 89%
viability, T/C [14]: 83.2%
viability, T/C [15]: 87.2%
viability, T/C [16]: 80.7%
viability, T/C [17]: 80.7%
viability, T/C [18]: 71%
viability, T/C [19]: 82.8%
viability, T/C [20]: 85.6%
viability, T/C [21]: 86.8%
viability, T/C [22]: 75.2%
viability, T/C [23]: 71.3%
viability, T/C [24]: 73.9%
viability, T/C [25]: 82.3%
viability, T/C [26]: 76.8%
viability, T/C [27]: 78.9%
viability, T/C [28]: 70.6%
viability, T/C [29]: 65.9%
viability, T/C [30]: 64.4%

SMILES: COc1cc(Nc2ncc3c(n2)-c2ccc(Cl)cc2C(c2c(F)cccc2OC)=NC3)ccc1C(=O)O + Cc1cncc(-c2nc(NCCc3c[nH]c4ccccc34)c3ncn(C(C)C)c3n2)c1
pIC50 (second compound 0.1 µM): < 5.00
pIC50 (second compound 0.316 µM): < 5.00
pIC50 (second compound 1 µM): < 5.00
pIC50 (second compound 3.16 µM): < 5.00
pIC50 (second compound 10 µM): < 5.00
viability, T/C [1]: 83.8%
viability, T/C [2]: 86.9%
viability, T/C [3]: 81.7%
viability, T/C [4]: 72.5%
viability, T/C [5]: 73.8%
viability, T/C [6]: 61.5%
viability, T/C [7]: 86.3%
viability, T/C [8]: 83.1%
viability, T/C [9]: 81.7%
viability, T/C [10]: 72.2%
viability, T/C [11]: 73.6%
viability, T/C [12]: 65.5%
viability, T/C [13]: 91.8%
viability, T/C [14]: 88.6%
viability, T/C [15]: 75.3%
viability, T/C [16]: 82.8%
viability, T/C [17]: 80%
viability, T/C [18]: 70.8%
viability, T/C [19]: 92.2%
viability, T/C [20]: 98%
viability, T/C [21]: 102%
viability, T/C [22]: 81.8%
viability, T/C [23]: 81.2%
viability, T/C [24]: 72.7%
viability, T/C [25]: 54.4%
viability, T/C [26]: 55%
viability, T/C [27]: 53.1%
viability, T/C [28]: 51.4%
viability, T/C [29]: 56.4%
viability, T/C [30]: 71.2%
